Tests used:
h-GABA-A α5β3γ2 [1] = target: T1, h-GABA-A α5β3γ2 (Homo sapiens, UniProt P18507+P31644); assay: Two-electrode voltage clamp electrophysiology in Xenopus oocytes expressing GABAA receptors (modulation of GABA EC20 current); format: cell-based; conditions: Table 1; for Efficacy (GABA) %: % modulation of GABA EC20 = 100*(Fold increase-1); for Fold increase h-GABA-A α5β3γ2 oocyte: Xenopus oocytes, GABA EC20, test compound at approximatively 30 fold its Ki
T1 construct: expressed in transfected cells; host or cells: Xenopus laevis oocytes, micro-injected with subunit RNA
Method in brief: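 Oocytes injected with α5β3γ2 subunit RNA, recorded 3-5 days later by two-electrode clamp at −80 mV, room temperature, pH 7.4. The compound, at ~30-fold its Ki, was co-applied during a second GABA EC20 pulse. Efficacy was the extremum of the point-by-point second/first current ratio, given as % modulation (100×(fold−1)); n≥3 oocytes.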

h-GABA-A α5β3γ2 [2] = target: T1, h-GABA-A α5β3γ2; assay: [3H]flumazenil competition binding assay on membranes of HEK293 cells expressing GABAA receptors; conditions: Table 1; displacement of [3H]-Flumazenil (0.5 nM), HEK293 cells expressing human receptors, means of two determinations
Method in brief: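 Membranes from HEK293 cells transiently expressing human α5β3γ2 were incubated 1 h at 4 °C in Krebs-tris pH 7.5 with 0.5 nM [3H]flumazenil and test compound. Nonspecific binding was set with 10^−5 M diazepam. Bound radioactivity was filtered and counted. Ki is the mean of two determinations.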

Row | Structure (SMILES) | Efficacy (GABA) % (h-GABA-A α5β3γ2 [1]) | Fold increase h-GABA-A α5β3γ2 oocyte (h-GABA-A α5β3γ2 [1]) | Ki (h-GABA-A α5β3γ2 [2])
1 | CCc1nccn1C1CCN(c2cnn(Cc3c(C)nnn3-c3ccc(Cl)cc3F)c(=O)c2)CC1 [Example 47, 2-[[3-(4-chloro-2-fluoro-phenyl)-5-methyl-triazol-4-yl]methyl]-5-[4-(2-ethylimidazol-1-yl)-1-piperidyl]pyridazin-3-one] | 130% | 2.3 | 13.2 nM
2 | Cn1nnc(-c2ccc(Cl)cc2F)c1Cn1ncc(N2CC(OC3CCC3)C2)cc1=O [Example 49, 2-((5-(4-chloro-2-fluoro-phenyl)-3-methyl-triazol-4-yl)methyl)-5-(3-(cyclobutoxy)azetidin-1-yl)pyridazin-3-one] | 73% | 1.73 | 8.3 nM
3 | COc1ccc(-c2cnn(Cc3c(C)nnn3-c3ccc(Cl)cc3F)c(=O)c2)cc1 [Example 56, 2-((3-(4-chloro-2-fluoro-phenyl)-5-methyl-triazol-4-yl)methyl)-5-(4-methoxyphenyl)pyridazin-3-one] | 50% | 1.5 | 21.6 nM
4 | Cc1nnn(-c2ccc(Cl)cc2F)c1Cn1ncc(-c2ccnc(C(F)(F)F)c2)cc1=O [Example 57, 2-((3-(4-chloro-2-fluoro-phenyl)-5-methyl-triazol-4-yl)methyl)-5-(2-(trifluoromethyl)-4-pyridyl)pyridazin-3-one] | 64% | 1.64 | 43 nM
5 | C[C@@H]1CN(c2cnn(Cc3c(-c4ccc(F)cc4F)nnn3C)c(=O)c2)C[C@H](C)O1 [Example 58, 2-[[5-(2,4-difluorophenyl)-3-methyl-triazol-4-yl]methyl]-5-[(2R,6S)-2,6-dimethylmorpholin-4-yl]pyridazin-3-one] | 138% | 2.38 | 7 nM
6 | COc1ccc(-c2cnn(Cc3c(-c4ccc(Cl)cc4F)nnn3C)c(=O)c2)cc1 [Example 61, 2-((5-(4-chloro-2-fluoro-phenyl)-3-methyl-triazol-4-yl)methyl)-5-(4-methoxyphenyl)pyridazin-3-one] | 52% | 1.52 | 2.6 nM
7 | COc1ccc(-c2cnn(Cc3c(-c4ccc(Cl)cc4F)nnn3C)c(=O)c2)cn1 [Example 62, 2-((5-(4-chloro-2-fluoro-phenyl)-3-methyl-triazol-4-yl)methyl)-5-(6-methoxy-3-pyridyl)pyridazin-3-one] | 50% | 1.5 | 8.2 nM
8 | COc1cc(-c2cnn(Cc3c(-c4ccc(Cl)cc4F)nnn3C)c(=O)c2)ccn1 [Example 63, 2-((5-(4-chloro-2-fluoro-phenyl)-3-methyl-triazol-4-yl)methyl)-5-(2-methoxy-4-pyridyl)pyridazin-3-one] | 42% | 1.42 | 2.2 nM
9 | Cn1cc(-c2cnn(Cc3c(-c4ccc(Cl)cc4F)nnn3C)c(=O)c2)cn1 [Example 64, 2-((5-(4-chloro-2-fluoro-phenyl)-3-methyl-triazol-4-yl)methyl)-5-(1-methylpyrazol-4-yl)pyridazin-3-one] | 76% | 1.76 | 11.2 nM
10 | Cc1nnn(-c2ccc(Cl)cc2F)c1Cn1ncc(-c2cnn(C3CC3)c2)cc1=O [Example 65, 2-((3-(4-chloro-2-fluoro-phenyl)-5-methyl-triazol-4-yl)methyl)-5-(1-cyclopropylpyrazol-4-yl)pyridazin-3-one] | 42% | 1.42 | 47.5 nM
11 | CCOc1ncc(-c2cnn(Cc3c(-c4ccc(Cl)cc4F)nnn3C)c(=O)c2)cc1C [Example 66, 2-((5-(4-chloro-2-fluoro-phenyl)-3-methyl-triazol-4-yl)methyl)-5-(6-ethoxy-5-methyl-3-pyridyl)pyridazin-3-one] | 143% | 2.43 | 19 nM
12 | Cn1nnc(-c2ccc(Cl)cc2F)c1Cn1ncc(-c2cnn(C3CC3)c2)cc1=O [Example 67, 2-((5-(4-chloro-2-fluoro-phenyl)-3-methyl-triazol-4-yl)methyl)-5-(1-cyclopropylpyrazol-4-yl)pyridazin-3-one] | 55% | 1.55 | 11 nM
13 | COc1ncc(-c2cnn(Cc3c(C)nnn3-c3ccc(Cl)cc3F)c(=O)c2)cc1Cl [Example 68, 2-((3-(4-chloro-2-fluoro-phenyl)-5-methyl-triazol-4-yl)methyl)-5-(5-chloro-6-methoxy-3-pyridyl)pyridazin-3-one] | 130% | 2.3 | 32.2 nM
14 | COc1ncc(-c2cnn(Cc3c(-c4ccc(Cl)cc4F)nnn3C)c(=O)c2)cc1Cl [Example 69, 2-((5-(4-chloro-2-fluoro-phenyl)-3-methyl-triazol-4-yl)methyl)-5-(5-chloro-6-methoxy-3-pyridyl)pyridazin-3-one] | 125% | 2.25 | 4.3 nM

More lines, now with the values ahead:

Row | Efficacy (GABA) % (h-GABA-A α5β3γ2 [1]) | Fold increase h-GABA-A α5β3γ2 oocyte (h-GABA-A α5β3γ2 [1]) | Ki (h-GABA-A α5β3γ2 [2]) | Structure (SMILES)
15 | 115% | 2.15 | 1.4 nM | C[C@H]1CN(c2cnn(Cc3c(-c4ccc(Cl)cc4F)nnn3C)c(=O)c2)CCO1 [Example 45, 2-((5-(4-chloro-2-fluoro-phenyl)-3-methyl-triazol-4-yl)methyl)-5-((2S)-2-methylmorpholin-4-yl)pyridazin-3-one]
16 | 86% | 1.86 | 1.6 nM | C[C@@H]1CN(c2cnn(Cc3c(-c4ccc(Cl)cc4F)nnn3C)c(=O)c2)CCO1 [Example 46, 2-((5-(4-chloro-2-fluoro-phenyl)-3-methyl-triazol-4-yl)methyl)-5-((2R)-2-methylmorpholin-4-yl)pyridazin-3-one]
17 | 52% | 1.52 | 8.5 nM | CC(C)OC1CN(c2cnn(Cc3c(-c4ccc(Cl)cc4F)nnn3C)c(=O)c2)C1 [Example 48, 2-((5-(4-chloro-2-fluoro-phenyl)-3-methyl-triazol-4-yl)methyl)-5-(3-isopropoxyazetidin-1-yl)pyridazin-3-one]
18 | 67% | 1.67 | 5.2 nM | Cn1nnc(-c2ccc(Cl)cc2F)c1Cn1ncc(N2CC(OCC(F)(F)F)C2)cc1=O [Example 50, 2-((5-(4-chloro-2-fluoro-phenyl)-3-methyl-triazol-4-yl)methyl)-5-(3-(2,2,2-trifluoro-ethoxy)azetidin-1-yl)pyridazin-3-one]
19 | 94% | 1.94 | 21.4 nM | CCCOC1CN(c2cnn(Cc3c(-c4ccc(Cl)cc4F)nnn3C)c(=O)c2)C1 [Example 51, 2-((5-(4-chloro-2-fluoro-phenyl)-3-methyl-triazol-4-yl)methyl)-5-(3-propoxyazetidin-1-yl)pyridazin-3-one]
20 | 55% | 1.55 | 4.1 nM | Cn1nnc(-c2ccc(Cl)cc2F)c1Cn1ncc(N2CC(Oc3ccc(Cl)nc3)C2)cc1=O [Example 52, 2-[[5-(4-chloro-2-fluoro-phenyl)-3-methyl-triazol-4-yl]methyl]-5-[3-[(6-chloro-3-pyridyl)oxy]azetidin-1-yl]pyridazin-3-one]
21 | 69% | 1.69 | 5.4 nM | Cn1nnc(-c2ccc(Cl)cc2F)c1Cn1ncc(N2CC(OC(F)F)C2)cc1=O [Example 53, 2-((5-(4-chloro-2-fluoro-phenyl)-3-methyl-triazol-4-yl)methyl)-5-(3-(difluoromethoxy)azetidin-1-yl)pyridazin-3-one]
22 | 82% | 1.82 | 6.4 nM | Cn1nnc(-c2ccc(Cl)cc2F)c1Cn1ncc(N2CC(OCC(F)F)C2)cc1=O [Example 54, 2-[[5-(4-chloro-2-fluoro-phenyl)-3-methyl-triazol-4-yl]methyl]-5-[3-(2,2-difluoro-ethoxy)azetidin-1-yl]pyridazin-3-one]
23 | 111% | 2.11 | 5.8 nM | Cn1nnc(-c2ccc(Cl)cc2F)c1Cn1ncc(N2CC(Oc3ccnc(Cl)c3)C2)cc1=O [Example 55, 2-[[5-(4-chloro-2-fluoro-phenyl)-3-methyl-triazol-4-yl]methyl]-5-[3-[(2-chloro-4-pyridyl)oxy]azetidin-1-yl]pyridazin-3-one]
24 | 81% | 1.81 | 37.1 nM | Cn1nnc(-c2ccc(Cl)cc2)c1Cn1ncc(N2CC(OCC(F)(F)F)C2)cc1=O [Example 59, 2-[[5-(4-chlorophenyl)-3-methyl-triazol-4-yl]methyl]-5-[3-(2,2,2-trifluoro-ethoxy)azetidin-1-yl]pyridazin-3-one]
25 | 76% | 1.76 | 45 nM | Cn1nnc(-c2ccc(Cl)cc2)c1Cn1ncc(N2CC(OCC(F)F)C2)cc1=O [Example 60, 2-[[5-(4-chlorophenyl)-3-methyl-triazol-4-yl]methyl]-5-[3-(2,2-difluoro-ethoxy)azetidin-1-yl]pyridazin-3-one]
